Experimental data taken from paper PMC6733504, “Effects of flavoring compounds used in electronic cigarette refill liquids on endothelial and vascular function” (PLoS ONE, 2019).
Like-named read-outs stand apart in the source and are kept apart here.

What was measured:
[1] = Electrochemical determination of NO released from DEA/NO (NO scavenging); conditions: DEA/NO 1 μM
Experimental: Scavenging of NO by flavoring compounds was studied with a nitric oxide sensor (ISO-NOP, World Precision Instruments, Berlin, Germany), calibrated with acidified nitrite as described previously. Free NO radical was generated by incubation of DEA/NO (1 μM) in 1 ml of 100 mM phosphate buffer, pH 7.4, in the absence or presence of superoxide dismutase (2500 U/ml) at ambient temperature. At the peak concentration of NO, flavoring compounds (10 μl of DSMO stock solutions) were added, DMSO served as vehicle control.

[2] = system: Porcine aortic endothelial cells (endogenous NO/cGMP pathway); assay: A23187 (Ca2+ ionophore)-induced endothelial cGMP formation; assay type: cell-based
Experimental: Porcine aortic endothelial cells were isolated as described and cultured at 37°C, 5% CO2 for up to 3 passages in Dulbecco´s modified Eagle´s medium, containing 10% heat-inactivated fetal calf serum (FCS), 100 U/ml penicillin, 0.1 mg/ml streptomycin, and 1.25 μg/ml amphotericin B. Prior to experiments, cells were subcultured into 24-well plates (determination of cGMP formation) or 6-well plates (determination of L-citrulline formation).
Accumulation of intracellular 3',5'-cyclic GMP (cGMP) was determined as previously described. Briefly, endothelial cells were washed and preincubated with the compounds to be tested for 15 minutes at 37°C in 50 mM Tris buffer, pH 7.4, containing 100 mM NaCl, 5 mM KCl, 1 mM MgCl2, 2.5 mM CaCl2, 1 mM 3-isobutyl-1-methylxanthine, and 1 μM indomethacin. Reactions were started by addition of the Ca^2+ ionophore A 23187 (final concentration 1 μM) or the NO donor DEA/NO (final concentration 1 μM) and terminated after 4 minutes by removal of the incubation medium and addition of 0.01 M HCl. Within 1 h, intracellular cGMP was completely released into the supernatant and measured by radioimmunoassay.

[3] = biological target: T1, soluble guanylate cyclase (sGC) (Bos taurus, UniProt P16068+P19687); assay: Activity of purified sGC stimulated with DEA/NO; assay type: biochemical, bovine; conditions: for Emax of DEA/NO-stimulated sGC activity in presence of flavoring: flavoring 1 mM, DEA/NO 0.01–10 μM
T1 construct: The activity of sGC purified from bovine lung; from tissue; host or cells: bovine lung
T1 sequence (P19687 1-691): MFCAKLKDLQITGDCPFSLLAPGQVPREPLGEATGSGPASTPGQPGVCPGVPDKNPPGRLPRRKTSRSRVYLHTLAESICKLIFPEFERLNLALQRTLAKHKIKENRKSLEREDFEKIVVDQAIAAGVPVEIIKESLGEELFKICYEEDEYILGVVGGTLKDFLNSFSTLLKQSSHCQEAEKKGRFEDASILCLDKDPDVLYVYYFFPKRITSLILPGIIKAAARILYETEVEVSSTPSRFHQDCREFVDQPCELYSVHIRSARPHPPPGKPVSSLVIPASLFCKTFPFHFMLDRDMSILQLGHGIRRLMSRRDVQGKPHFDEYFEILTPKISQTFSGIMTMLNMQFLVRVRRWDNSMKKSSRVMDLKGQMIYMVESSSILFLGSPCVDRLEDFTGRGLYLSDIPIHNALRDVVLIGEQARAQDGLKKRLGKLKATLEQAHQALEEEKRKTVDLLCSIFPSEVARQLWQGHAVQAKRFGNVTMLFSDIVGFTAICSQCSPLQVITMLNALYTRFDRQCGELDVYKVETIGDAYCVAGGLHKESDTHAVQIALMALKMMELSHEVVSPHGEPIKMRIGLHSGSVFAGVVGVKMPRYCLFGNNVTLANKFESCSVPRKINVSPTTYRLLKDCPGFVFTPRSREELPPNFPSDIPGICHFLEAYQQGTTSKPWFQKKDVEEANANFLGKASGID
T1 sequence (P16068 1-619): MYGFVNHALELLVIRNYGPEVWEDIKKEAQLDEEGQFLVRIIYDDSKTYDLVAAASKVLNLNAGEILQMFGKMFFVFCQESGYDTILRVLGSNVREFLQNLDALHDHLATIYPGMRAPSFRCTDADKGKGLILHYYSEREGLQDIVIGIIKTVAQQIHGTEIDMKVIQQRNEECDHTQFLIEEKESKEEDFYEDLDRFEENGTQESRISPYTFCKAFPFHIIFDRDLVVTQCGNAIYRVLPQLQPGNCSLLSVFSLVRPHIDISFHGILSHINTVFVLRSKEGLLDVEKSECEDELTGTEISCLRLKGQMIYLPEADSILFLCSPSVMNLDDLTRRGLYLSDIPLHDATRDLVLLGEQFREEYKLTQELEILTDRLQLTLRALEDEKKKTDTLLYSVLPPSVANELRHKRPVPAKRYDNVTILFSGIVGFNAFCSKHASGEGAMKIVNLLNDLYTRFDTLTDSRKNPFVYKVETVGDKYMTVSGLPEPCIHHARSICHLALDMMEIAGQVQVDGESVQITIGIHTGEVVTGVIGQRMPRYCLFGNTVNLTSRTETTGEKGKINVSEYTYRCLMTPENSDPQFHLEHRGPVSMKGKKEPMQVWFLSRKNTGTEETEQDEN
Experimental: The activity of sGC purified from bovine lung was determined as formation of [^32P]cGMP from [α-^32P]GTP. The purified enzyme (50 ng) was incubated at 37°C for 10 min in a final volume of 0.1 ml in the absence or presence of flavorings with the NO donor DEA/NO at concentrations indicated in the figure legends, followed by isolation of [^32P]cGMP and quantification of radioactivity (Cerenkov radiation) in a β counter.
To test for reversibility of inhibition, sGC (50 ng) was preincubated in the absence or presence of the respective compounds for 5 minutes at 37°C, followed by 50-fold dilution in the assay mixtures and incubation with DEA/NO at 37°C for 10 minutes.

[4] = system: rat aortic rings; assay: Effect of flavorings on vascular tone of U-46619 precontracted aortic rings; conditions: 95% CI
Experimental: Unsexed Sprague-Dawley rats (obtained from Charles River, Sulzfeld, Germany) were housed at the local animal facility in approved cages. […] Animals were euthanized in a box that was gradually filled with CO2 until vital signs had ceased (cessation of respiration and circulation). Subsequently, the thorax of the animals was opened, the thoracic aorta was removed, cleaned from connective tissue and immediately used for assessment of vessel function.
After equilibration for 60 min at the optimal resting tension of 20 mN, maximal contractile activity was determined with a depolarizing solution containing 60 mM K^+. […] When contraction had reached a stable plateau (~after 20 min) cumulative concentration-response curves were established with flavorings. Where indicated, the effects of the flavorings on vascular tone were tested in the presence of the NOS inhibitor N^G-nitro-L-arginine methyl ester (L-NAME, 0.2 mM).
Concentration-response curves of different ring segments from a single animal were averaged and counted as an individual experiment.

[5] = system: endothelial cells; assay: LDH release (membrane integrity); conditions: 1 mM, 60 minutes; maximum = 1% Triton
Experimental: To test for membrane integrity, endothelial cells were assayed for release of lactate dehydrogenase (LDH) into the culture medium. Subsequent to incubation with flavoring compounds (1 mM each) for 1 hour, 20-μl aliquots of the culture media were mixed with 200 μl of reagent buffer (1 mM pyruvate and 0.1 mM NAD^+ in PBS). The decrease in light absorbance at 340 nm was monitored using a diode array spectrophotometer (Hewlett Packard 8452A). Maximum LDH release was determined by treating the cells with 1% Triton X-100.

[6] = Rattus norvegicus, absence of L-NAME, read-out: EC50 of relaxation of pre-contracted vessels (Control)
[7] = Rattus norvegicus, presence of L-NAME 0.2 mM, read-out: EC50 of relaxation of pre-contracted vessels (L-NAME)

Row | SMILES | Effect on recorded NO signal (NO scavenging) ([1]; 1 mM) | Effect on recorded NO signal (NO scavenging) ([1]; 10 mM) | Concentration inhibiting Ca2+-stimulated endothelial cGMP accumulation [2] | A23187-induced cGMP formation ([2]; flavoring 1 mM, 15 min preincubation, 1 μM A23187 for 4 min (Fig 1A)) | IC50 ([3]; DEA/NO 0.05 μM, 95% CI) | Reversal of sGC inhibition by 50-fold dilution ([3]; enzyme pre-incubated 5 minutes with 1 mM) | Emax of DEA/NO-stimulated sGC activity in presence of flavoring [3] | EC50 [4, 6] | EC50 [4, 7] | LDH release (% of maximum) [5] | EC50 ([4]; absence of L-NAME, read-out: EC50 of relaxation of pre-contracted vessels (Control))
1 | O=C/C=C/c1ccccc1 [Cinnamaldehyde, (2E)-3-Phenylprop-2-enal] | only moderate effects | pronounced decrease | ≥ 0.3 mM | about 35 % of controls | 560 µM | largely | 24±0.8 µmol cGMP x min-1 x mg-1 | ~500 µM | 600 µM | – | –
2 | C=CCc1ccc(O)c(OC)c1 [Eugenol, 2-Methoxy-4-(prop-2-en-1-yl)phenol] | – | – | – | – | – | – | 28±1.1 µmol cGMP x min-1 x mg-1 | ~500 µM | 500 µM | 0.4±0.23 % of maximum | 400 µM
